The text below walks through data of ChEMBL document CHEMBL4130502, “Discovery of thienopyrrolotriazine derivatives to protect mitochondrial function against Aβ-induced neurotoxicity” (Eur J Med Chem, 2017).

One series concerns the target CYP2C19 (Homo sapiens, UniProt P33261). As to the kind of experiment: Inhibition of human CYP2C19 assessed as remaining enzyme activity at 10 uM preincubated for 5 mins followed by Vivid CYP substrate addition measured after 20 mins by fluorescence assay relative to control. The format is ADME. As to conditions: probe Vivid CYP substrate, read-out: Activity.
Series [1] deals with Translocator protein (Homo sapiens, UniProt P30536). Briefly: Binding affinity to C-terminal DDK-tagged human recombinant full-length TSPO expressed in HEK293 cells by SPR assay. A general note: Surface plasmon resonance follows binding to a sensor surface in real time, without labels.
Series [2] in a line: Stability in rat plasma assessed as parent compound remaining at 10 uM after 30 mins by LC-MS/MS analysis. The format is ADME, cell-free. The following applies: read-out: Stability.
The nature of series [3]: Stability in mouse liver microsomes assessed as parent compound remaining at 1 uM preincubated for 5 mins followed by NADPH addition measured after 30 mins by LC-MS/MS analysis. The format is ADME, microsome. The following applies: read-out: Stability. For orientation: Liver microsomes are a subcellular fraction often used to study metabolism.
Series [4] is described as follows: Stability in dog liver microsomes assessed as parent compound remaining at 1 uM preincubated for 5 mins followed by NADPH addition measured after 30 mins by LC-MS/MS analysis. The format is ADME, Canis lupus familiaris, microsome. As to conditions: read-out: Stability.
A short description of series [5]: Stability in rat liver microsomes assessed as parent compound remaining at 1 uM preincubated for 5 mins followed by NADPH addition measured after 30 mins by LC-MS/MS analysis. The format is ADME, microsome. As to conditions: read-out: Stability.
In series [6] the target is Translocator protein (Rattus norvegicus, UniProt P16257). As to the kind of experiment: Displacement of [3H]PK11195 from TSPO in Sprague-Dawley rat cerebral cortex membranes after 60 mins by liquid scintillation counting analysis. On the set-up: species or system Membrane.
The next series has as its target CYP3A4 (Homo sapiens, UniProt P08684). Briefly: Inhibition of human CYP3A4 assessed as remaining enzyme activity at 10 uM preincubated for 5 mins followed by Vivid CYP substrate addition measured after 20 mins by fluorescence assay relative to control. The following applies: probe Vivid CYP substrate, read-out: Activity. The format is ADME.
Another series has as its target T1, CYP1A2 (Homo sapiens, UniProt P05177).
T1 sequence (P05177 whole entry): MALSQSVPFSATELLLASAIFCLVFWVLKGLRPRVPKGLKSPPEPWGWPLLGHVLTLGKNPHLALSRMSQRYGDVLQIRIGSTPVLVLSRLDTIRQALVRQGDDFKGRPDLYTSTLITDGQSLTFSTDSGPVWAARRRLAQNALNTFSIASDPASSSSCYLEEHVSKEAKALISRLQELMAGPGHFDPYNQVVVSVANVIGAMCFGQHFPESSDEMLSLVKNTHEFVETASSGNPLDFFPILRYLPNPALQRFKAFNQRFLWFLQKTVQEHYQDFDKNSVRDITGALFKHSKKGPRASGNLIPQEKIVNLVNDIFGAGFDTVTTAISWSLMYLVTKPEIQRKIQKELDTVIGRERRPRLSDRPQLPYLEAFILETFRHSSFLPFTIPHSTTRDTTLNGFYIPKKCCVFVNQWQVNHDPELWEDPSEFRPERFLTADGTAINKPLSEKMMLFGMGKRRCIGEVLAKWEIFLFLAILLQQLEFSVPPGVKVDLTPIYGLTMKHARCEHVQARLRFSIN
As to the kind of experiment: Inhibition of human CYP1A2 assessed as remaining enzyme activity at 10 uM preincubated for 5 mins followed by Vivid CYP substrate addition measured after 20 mins by fluorescence assay relative to control. The format is ADME. The following applies: probe Vivid CYP substrate, read-out: Activity.

Series [7] is described as follows: Stability in rat plasma assessed as parent compound remaining at 10 uM after 120 mins by LC-MS/MS analysis. The format is ADME, cell-free. The following applies: read-out: Stability.
Series [8] concerns the target Translocator protein (Mus musculus) (UniProt P50637). Briefly: Inhibition of TSPO in mouse HT22 cells assessed as reduction in amyloid beta (1 to 42) (unknown origin) induced mitochondrial permeability transition pore formation by measuring increase in green to red fluorescence ratio at 5 uM pretreated for 10 mins followed by amyloid beta (1 to 42) stimulation and measured at 1 hr interval for 3 hrs by JC-1 dye based fluorescence assay relative to control. The format is cell-based. Set-up: scale not given: the % may be the effect or the level left.

The target in the next series is CYP2C9 (Homo sapiens, UniProt P11712). Briefly: Inhibition of human CYP2C9 assessed as remaining enzyme activity at 10 uM preincubated for 5 mins followed by Vivid CYP substrate addition measured after 20 mins by fluorescence assay relative to control. The format is ADME. The following applies: probe Vivid CYP substrate, read-out: Activity.
Series [9] is described as follows: Cytotoxicity against mouse HT22 cells as cell viability at 5 uM after 24 hrs by MTT assay relative to control. The format is cell-based, HT-22. The following applies: read-out: Activity. For orientation: Tetrazolium assays rely on reduction of a dye to a coloured formazan, in cell work by metabolically active cells.
Series [10] is described as follows: Stability in human plasma assessed as parent compound remaining at 10 uM after 120 mins by LC-MS/MS analysis. The format is ADME, cell-free. The following applies: read-out: Stability.
Another series addresses CYP2D6 (Homo sapiens, UniProt P10635). As to the kind of experiment: Inhibition of human CYP2D6 assessed as remaining enzyme activity at 10 uM preincubated for 5 mins followed by Vivid CYP substrate addition measured after 20 mins by fluorescence assay relative to control. The format is ADME. As to conditions: probe Vivid CYP substrate, read-out: Activity.
Series [11] is described as follows: Stability in human plasma assessed as parent compound remaining at 10 uM after 30 mins by LC-MS/MS analysis. The following applies: read-out: Stability. The format is ADME, cell-free.
The target in series [12] is Translocator protein (Mus musculus) (UniProt P50637). As to the kind of experiment: Inhibition of TSPO in mouse HT22 cells assessed as recovery of ATP production at 5 uM preincubated for 10 mins followed by amyloid beta (1 to 42) stimulation and measured after 7 hrs by luciferase based assay relative to control. On the set-up: scale not given: the % may be the effect or the level left. The format is cell-based.

The nature of series [13]: Stability in human liver microsomes assessed as parent compound remaining at 1 uM preincubated for 5 mins followed by NADPH addition measured after 30 mins by LC-MS/MS analysis. The format is ADME, microsome. As to conditions: read-out: Stability.

SMILES strings stand for the structures. Bounds are passed on as bounds.

Chain of Translocator protein (Mus musculus) (P50637 whole entry, looked up): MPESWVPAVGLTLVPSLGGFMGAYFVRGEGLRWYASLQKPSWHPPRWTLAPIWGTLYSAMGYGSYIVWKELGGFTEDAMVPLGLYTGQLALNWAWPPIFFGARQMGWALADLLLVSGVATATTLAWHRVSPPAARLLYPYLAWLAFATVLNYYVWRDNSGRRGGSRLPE
Chain of CYP3A4 (P08684 whole entry): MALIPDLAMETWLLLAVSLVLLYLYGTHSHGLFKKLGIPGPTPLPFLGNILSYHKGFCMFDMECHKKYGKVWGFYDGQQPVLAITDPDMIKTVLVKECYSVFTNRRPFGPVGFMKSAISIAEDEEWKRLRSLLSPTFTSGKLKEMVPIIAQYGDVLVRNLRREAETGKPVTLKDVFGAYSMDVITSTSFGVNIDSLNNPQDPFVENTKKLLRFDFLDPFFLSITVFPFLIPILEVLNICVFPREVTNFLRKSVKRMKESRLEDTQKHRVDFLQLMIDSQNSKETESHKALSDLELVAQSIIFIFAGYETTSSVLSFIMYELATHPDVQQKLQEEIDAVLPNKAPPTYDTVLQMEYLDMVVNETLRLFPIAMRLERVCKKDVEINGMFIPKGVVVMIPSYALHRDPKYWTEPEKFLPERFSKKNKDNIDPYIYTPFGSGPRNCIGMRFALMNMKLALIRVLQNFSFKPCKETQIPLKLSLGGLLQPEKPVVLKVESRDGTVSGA
Chain of CYP2C9 (P11712 whole entry): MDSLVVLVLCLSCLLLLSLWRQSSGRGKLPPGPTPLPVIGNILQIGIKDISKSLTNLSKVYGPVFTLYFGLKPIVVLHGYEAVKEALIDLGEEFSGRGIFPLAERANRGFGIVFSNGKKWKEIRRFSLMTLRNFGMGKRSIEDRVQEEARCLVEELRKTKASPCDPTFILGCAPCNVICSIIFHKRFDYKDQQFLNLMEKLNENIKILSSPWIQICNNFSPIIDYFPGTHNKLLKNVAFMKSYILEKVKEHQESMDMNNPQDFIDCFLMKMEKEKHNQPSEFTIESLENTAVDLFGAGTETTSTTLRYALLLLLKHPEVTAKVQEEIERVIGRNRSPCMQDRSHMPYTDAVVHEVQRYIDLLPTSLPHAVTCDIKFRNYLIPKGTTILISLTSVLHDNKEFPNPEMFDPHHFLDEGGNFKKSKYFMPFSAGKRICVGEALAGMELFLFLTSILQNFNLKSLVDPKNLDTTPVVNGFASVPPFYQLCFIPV
Chain of Translocator protein (Homo sapiens, UniProt P30536) (P30536 whole entry): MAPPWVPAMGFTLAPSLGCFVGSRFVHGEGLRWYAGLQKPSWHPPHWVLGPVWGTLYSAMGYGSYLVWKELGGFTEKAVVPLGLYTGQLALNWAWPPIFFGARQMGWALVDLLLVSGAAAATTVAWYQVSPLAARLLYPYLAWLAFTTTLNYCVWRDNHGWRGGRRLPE
Chain of CYP2D6 (P10635 whole entry): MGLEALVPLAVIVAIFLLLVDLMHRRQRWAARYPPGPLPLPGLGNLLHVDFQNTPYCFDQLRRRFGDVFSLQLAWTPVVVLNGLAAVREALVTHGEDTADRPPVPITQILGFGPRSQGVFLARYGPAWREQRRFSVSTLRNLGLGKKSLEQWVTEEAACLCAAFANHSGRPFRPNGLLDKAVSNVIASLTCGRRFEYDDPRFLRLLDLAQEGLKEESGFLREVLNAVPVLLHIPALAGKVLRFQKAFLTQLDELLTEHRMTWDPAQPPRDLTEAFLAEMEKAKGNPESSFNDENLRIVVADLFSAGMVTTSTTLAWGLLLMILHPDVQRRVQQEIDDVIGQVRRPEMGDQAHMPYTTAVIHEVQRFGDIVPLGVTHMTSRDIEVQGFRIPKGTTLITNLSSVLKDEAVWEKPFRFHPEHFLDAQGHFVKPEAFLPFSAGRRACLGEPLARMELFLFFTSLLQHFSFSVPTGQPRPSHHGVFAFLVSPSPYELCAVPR
Chain of CYP2C19 (P33261 whole entry): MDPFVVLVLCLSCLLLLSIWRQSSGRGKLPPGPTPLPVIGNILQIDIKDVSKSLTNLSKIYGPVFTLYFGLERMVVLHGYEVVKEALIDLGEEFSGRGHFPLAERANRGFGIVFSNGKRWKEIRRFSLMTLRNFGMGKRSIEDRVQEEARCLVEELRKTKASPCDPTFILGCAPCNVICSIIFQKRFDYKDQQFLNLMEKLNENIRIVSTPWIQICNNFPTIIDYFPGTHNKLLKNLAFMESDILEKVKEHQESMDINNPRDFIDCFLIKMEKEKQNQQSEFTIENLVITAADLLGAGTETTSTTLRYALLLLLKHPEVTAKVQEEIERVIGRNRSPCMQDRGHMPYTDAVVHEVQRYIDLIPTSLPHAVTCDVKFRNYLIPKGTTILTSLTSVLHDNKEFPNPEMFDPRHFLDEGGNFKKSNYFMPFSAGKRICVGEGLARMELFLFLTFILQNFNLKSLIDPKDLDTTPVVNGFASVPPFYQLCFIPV
Chain of Translocator protein (Rattus norvegicus, UniProt P16257) (P16257 whole entry, looked up): as the sequence (P50637 whole entry, looked up) above, with P2S, E3Q, V67I, D77E, A110V, L113M, V149M, P168T counted along it

With `CCc1nnc(SCC(=O)N(C)c2ccccc2)c2cc3sccc3n12`, the activity at 20 min, 10 µM was determined as 16.8% at CYP2C19; 32.2% at CYP3A4; 33.7% at CYP1A2; 70.5% on CYP2C9; 49.5% on CYP2D6. Besides, the Kd (as a rule, the equilibrium constant for the complex coming apart) on Translocator protein [1] is 39.6 nM. The remaining at 0.5 h, 10 µM in [2] was 94%; in series [11], over 100%. The remaining at 0.5 h, 1 µM is 8.2% in series [3], 5.1% in series [4], 6.4% in [5] and 5% in [13]. Moreover, on Translocator protein [6], the concentration for half-maximal inhibition (IC50) (as a rule, the concentration at which inhibition is half-maximal) was found to be 24.8 nM. Moreover, the remaining at 2 h, 10 µM in series [7] stood at 72.4%; in series [10] it was 96.8%. In addition, the Activity in series [8] amounted to 46%; in [12], 8%. The viability at 24 h, 5 µM in series [9] was determined as 97%.
`CCc1nnc(SCC(=O)N(C)c2ccccc2)c2cc3sc(C)cc3n12`: the activity at 20 min, 10 µM on CYP2C19 turned out to be 52.2%; at CYP3A4 it was 64.1%; on CYP1A2 it was 50.7%; at CYP2C9 it was 64.8%; on CYP2D6, 60.4%. Moreover, on Translocator protein [1], the dissociation constant (Kd) was 61.2 nM. Besides, the values for the remaining at 0.5 h, 10 µM in series [2] and in series [11] were 96.6% and 99.3%, respectively. Also, the remaining at 0.5 h, 1 µM in series [3] turned out to be 12.8%; in series [4], 9.8%; in series [5], 9%; in [13], 8.8%. In addition, the IC50 at Translocator protein [6] stood at 39.9 nM. Further, the remaining at 2 h, 10 µM was determined as 80.6% in series [7] and 93.6% in series [10]. In addition, the Activity in series [8] was determined as 61%; in series [12] it was 44%. The viability at 24 h, 5 µM in series [9] was 91%.
